From patent US20250034216A1, “STEREOSELECTIVE COVALENT LIGANDS FOR ONCOGENIC AND IMMUNOLOGICAL PROTEINS” (The Scripps Research Institute, priority 2021, published 2025)

Assays:
[1] = tested on: 22Rv1 cells; assay: Proliferation assay (CellTiter Glo); assay type: cell-based, human; settings: 72 h
Protocol: Cells were seeded at 5000 cells per well (50 μL medium) in 96-well flat bottom white wall plates. After 24 h, 50 μL of medium containing DMSO or compound dilutions (2× final concentration from 1000× stocks) were added to the wells. At the time of compound addition, a reference plate to determine the cell population density at time 0 (TO) was assayed using CellTiter Glo reagent (50 μL added to each well). After 72 h in culture, the remaining plates were assayed using CellTiter Glo. After 30 min of shaking at room temperature, luminescence was analyzed using a CLARIOstar (BMG Labtech) plate reader. Raw values were normalized using GraphPad PRISM software version 9.0.0. Lines of best fit were generated using a four-parameter variable slope least squares regression.

[2] = molecular target: T1, PSME1 22 (Homo sapiens, UniProt Q06323); assay: IA-DTB cysteine engagement, GluC + trypsin digest; assay type: binding; settings: 22Rv1 cells
T1 construct: stereoselectively engaged C22 of endogenous PSME1 in 22Rv1 cells; endogenous in cells; host or cells: 22Rv1
T1 sequence (Q06323 whole entry): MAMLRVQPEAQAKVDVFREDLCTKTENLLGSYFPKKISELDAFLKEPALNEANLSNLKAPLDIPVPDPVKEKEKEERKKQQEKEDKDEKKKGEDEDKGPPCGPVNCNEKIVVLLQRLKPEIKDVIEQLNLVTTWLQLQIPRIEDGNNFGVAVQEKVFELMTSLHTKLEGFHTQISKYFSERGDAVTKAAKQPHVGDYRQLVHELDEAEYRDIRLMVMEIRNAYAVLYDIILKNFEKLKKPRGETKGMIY
Protocol: Sample preparation: Cells (adherent: 15 cm dishes, suspension: 2 million cells/mL) were treated with electrophilic probes in situ for indicated times and concentrations, washed with ice-cold PBS, and flash frozen in liquid nitrogen. Cell pellets were lysed by sonication (8 pulses, 40% power) in 500 μL ice-cold PBS supplemented with cOmplete protease inhibitors (1 tablet/10 mL of PBS). Whole cell lysates protein content was measured using a standard DC protein assay (Bio-Rad) and 500 μL (2 mg/mL protein content) were treated with 5 μL of 10 mM 1A-DTB (in DMSO) for 1 h at ambient temperature with occasional vortexing. Samples were methanol-chloroform precipitated with the addition of 500 μL ice-cold MeOH and 200 μL CHCl3, vortexed, and centrifuged (10 min, 10,000 g). Without disrupting the protein disk, both top and bottom layers were aspirated and the protein disk was washed with 1 mL ice-cold MeOH and centrifuged (10 min, 10,000 g). The pellets were allowed to air dry, and then re-suspended in 90 μL buffer (9 M urea, 10 mM DTT, 50 mM TEAB pH 8.5). Samples were reduced by heating at 65 C for 20 minutes and water bath sonicated as needed to resuspend the protein pellets, followed by alkylation via addition of 10 μL (500 mM) iodoacetamide and incubated at 37 C for 30 min with shaking. Samples were briefly centrifuged, and probe sonicated once more to ensure complete resuspension, and then diluted with 300 μL buffer (50 mM TEAB pH 8.5) to reach final concentration of 2 M urea. […] Digested samples were then diluted with 300 μL wash buffer (50 mM TEAB pH 8.5, 150 mM NaCl, 0.2% NP-40) containing streptavidin-agarose beads (50 μL of 50% slurry in wash buffer) and were rotated at room temperature for 2 hours. Enriched samples were pelleted by centrifugation (2000 g, 2 min) and transferred to BioSpin columns and washed (3×1 mL wash buffer, 3×1 mL PBS, 3×1 mL water). Enriched peptides were eluted by 300 μL 50% acetonitrile with 0.1% formic acid and eluate was evaporated to dryness via speedvac. IA-DTB labeled and enriched peptides were resuspended in 100 μL EPPS buffer (200 mM, pH 8.0) with 30% acetonitrile, vortexed, and water bath sonicated. Samples were TMT labeled with 3 μL of corresponding TMT tag (5 mg tag resuspended in 256 μL acetonitrile), vortexed, and incubated at room temperature for 1 hour. […]
Data processing: Cysteine engagement ratios (probe vs DMSO) were calculated for each peptide-spectra match by dividing each TMT reporter ion intensity by the average intensity for the channels corresponding to DMSO treatment. […]
Samples were analyzed by liquid chromatography tandem mass-spectrometry using an Orbitrap Fusion mass spectrometer (Thermo Scientific) coupled to an UltiMate 3000 Series Rapid Separation LC system and autosampler (Thermo Scientific Dionex). […]

percent engagement relative to DMSO, PSME1 22 ([2]; 5 uM) [%]	percent engagement relative to DMSO, PSME1 22 ([2]; 20 uM) [%]	IC50 ([1]; read-out: antiproliferative activity IC50) [nM]	Structure (SMILES)	anti-proliferative effect [1]	fold greater antiproliferative activity than MY-7A [1] [fold]
−24.33	−26.32		C=CC(=O)N1[C@@H](c2ccc3c(c2)OCO3)c2[nH]c3ccccc3c2C[C@@H]1C(=O)N1CCOCC1 [WX-02-43, 1-((1S,3R)-1-(benzo[d][1,3]dioxol-5-yl)-3-(morpholine-4-carbonyl)-1,3,4,9-tetrahydro-2H-pyrido [3,4-b]indol-2-yl)prop-2-en-1-one]	inactive enantiomer	
−20.9	−29.44	170	C=CC(=O)N1[C@H](c2ccc3c(c2)OCO3)c2[nH]c3ccccc3c2C[C@H]1C(=O)N1CCOCC1 [WX-02-23, 1-((1R,3S)-1-(benzo[d][1,3]dioxol-S-yl)-3-(morpholine-4-carbonyl)-1,3,4,9-tetrahydro-2H-pyrido [3,4-b]indol-2-yl)prop-2-en-1-one]		~4
